For series [1] the following is noted: 18-membered ring, DCM.
For a further series, the system named is NCI-H358 (K-Ras G12C). Description: pERK potency assay, NCI-H358. The class given is cell-based. As to conditions: Homo sapiens; NCI-H358 cells, 4 hours incubation with compound. The procedure:
The purpose of this assay was to measure the ability of test compounds to inhibit K-Ras in cells. Activated K-Ras induces increased phosphorylation of ERK at Threonine 202 and Tyrosine 204 (pERK). This procedure measures a decrease in cellular pERK in response to test compounds. The procedure described below in NCI-H358 cells is applicable to K-Ras G12C. […]
NCI-H358 cells were grown and maintained using media and procedures recommended by the ATCC. On the day prior to compound addition, cells were plated in 384-well cell culture plates (40 μl/well) and grown overnight in a 37° C., 5% CO2 incubator. Test compounds were prepared in 10, 3-fold dilutions in DMSO, with a high concentration of 10 mM. On the day of assay, 40 nL of test compound was added to each well of cell culture plate using an Echo550 liquid handler (LabCyte®). Concentrations of test compound were tested in duplicate. After compound addition, cells were incubated 4 hours at 37° C., 5% CO2. Following incubation, culture medium was removed and cells were washed once with phosphate buffered saline.
In some experiments, cellular pERK level was determined using the AlphaLISA SureFire Ultra p-ERK1/2 Assay Kit (PerkinElmer). Cells were lysed in 25 μL lysis buffer, with shaking at 600 RPM at room temperature. Lysate (10 μL) was transferred to a 384-well Opti-plate (PerkinElmer) and 5 μL acceptor mix was added. After a 2-hour incubation in the dark, 5 μL donor mix was added, the plate was sealed, and incubated 2 hours at room temperature. Signal was read on an Envision plate reader (PerkinElmer) using standard AlphaLISA settings. Analysis of raw data was carried out in Excel (Microsoft) and Prism (GraphPad). Signal was plotted vs. the decadal logarithm of compound concentration, and IC50 was determined by fitting a 4-parameter sigmoidal concentration response model.
In other experiments, cellular pERK was determined by In-Cell Western. Following compound treatment, cells were washed twice with 200 μL tris buffered saline (TBS) and fixed for 15 minutes with 150 μL 4% formaldehyde in TBS. Fixed cells were washed 4 times for 5 minutes with TBS containing 0.1% Triton X-100 (TBST) and then blocked with 100 μL Odyssey blocking buffer (LI-COR) for 60 minutes at room temperature. Primary antibody (pERK, CST-4370, Cell Signaling Technology) was diluted 1:200 in blocking buffer, and 50 μL were added to each well and incubated overnight at 4° C. Cells were washed 4 times for 5 minutes with TBST. Secondary antibody (IR-800CW rabbit, LI-COR, diluted 1:800) and DNA stain DRAQ5 (LI-COR, diluted 1:2000) were added and incubated 1-2 hours at room temperature. Cells were washed 4 times for 5 minutes with TBST. Plates were scanned on a Li-COR Odyssey CLx Imager. Analysis of raw data was carried out in Excel (Microsoft) and Prism (GraphPad). Signal was plotted vs. the decadal logarithm of compound concentration, and IC50 was determined by fitting a 4-parameter sigmoidal concentration response model.

pIC50: −log10 of the molar value. Where “and” joins values, the source holds several entries; their conditions need not be identical. Equal entries are not always repeated. Where two headings read alike, the source gives them in different places.

As for `CCn1c(-c2cc(N3CCN4CCCC[C@@H]4C3)cnc2[C@H](C)OC)c2c3cc(ccc31)-c1cccc(c1)C[C@H](NC(=O)OC(C)(C)C)C(=O)N1CCC[C@H](N1)C(=O)OCC(C)(C)C2`, the ring closure, isolated yield in series [1] (from CCn1c(-c2cc(N3CCN4CCCC[C@@H]4C3)cnc2[C@H](C)OC)c(CC(C)(C)CO)c2cc(-c3cccc(C[C@H](NC(=O)OC(C)(C)C)C(=O)N4CCC[C@@H](C(=O)O)N4)c3)ccc21, ester bond, EDCI/HOBt/DIPEA, 11.3 mM, 16.0 h) amounted to 62%.
The molecule `CCn1c(-c2cc(N3CCN4CCOC[C@@H]4C3)cnc2[C@H](C)OC)c2c3cc(ccc31)C1=CCCN(C1)C[C@H](NC(=O)OC(C)(C)C)C(=O)N1CCC[C@H](N1)C(=O)OCC(C)(C)C2` registered a ring closure, isolated yield in series [1] (from CCn1c(-c2cc(N3CCN4CCOC[C@@H]4C3)cnc2[C@H](C)OC)c(CC(C)(C)CO)c2cc(C3=CCCN(C[C@H](NC(=O)OC(C)(C)C)C(=O)N4CCC[C@@H](C(=O)O)N4)C3)ccc21, ester bond, EDC.HCl/HOBt/DIEA, 11.3 mM, 0.0 °C, 2.0 h) of 67%.
In series [1] (from CO[C@@H](C)c1ncc(N2CCN3CCOC[C@@H]3C2)cc1-c1c(CC(C)(C)CO)c2cc(-c3cccc(C[C@H](NC(=O)OC(C)(C)C)C(=O)N4CCC[C@@H](C(=O)O)N4)c3)ccc2n1CC(F)(F)F, ester bond, EDCI/HOBt/DIPEA, 5.3 mM, 16.0 h), `CO[C@@H](C)c1ncc(N2CCN3CCOC[C@@H]3C2)cc1-c1c2c3cc(ccc3n1CC(F)(F)F)-c1cccc(c1)C[C@H](NC(=O)OC(C)(C)C)C(=O)N1CCC[C@H](N1)C(=O)OCC(C)(C)C2` displayed a ring closure, isolated yield of 98%.
`CO[C@@H](C)c1ncccc1-c1c2c3cc(ccc3n1CC(F)(F)F)-c1coc(n1)C[C@H](NC(=O)OCc1ccccc1)C(=O)N1CCC[C@H](N1)C(=O)OCC(C)(C)C2`: in series [1] (from CO[C@@H](C)c1ncccc1-c1c(CC(C)(C)COC(=O)[C@@H]2CCCNN2)c2cc(-c3coc(C[C@H](NC(=O)OCc4ccccc4)C(=O)O)n3)ccc2n1CC(F)(F)F, amide bond, EDCI/HOBt/DIEA, 6.3 mM, 16.0 h), the ring closure, isolated yield came to 21%.
In the case of `CO[C@@H](C)c1ncccc1-c1c2c3cc(ccc3n1CC(F)(F)F)C1CCN(C1)C[C@H](NC(=O)OC(C)(C)C)C(=O)N1CCC[C@H](N1)C(=O)OCC(C)(C)C2`, the ring closure, isolated yield in series [1] (from CO[C@@H](C)c1ncccc1-c1c(CC(C)(C)CO)c2cc(C3CCN(C[C@H](NC(=O)OC(C)(C)C)C(=O)N4CCC[C@@H](C(=O)O)N4)C3)ccc2n1CC(F)(F)F, ester bond, EDCI/HOBt/DIEA, 7.1 mM, 16.0 h) was found to be 21%.
Usually pIC50 stands for the negative decadic logarithm of the IC50, by convention in mol/L. As to `C=CC(=O)N1CCOC2(CCN(C(=O)N(C)[C@H](C(=O)N[C@H]3Cc4cncc(n4)-c4ccc5c(c4)c(c(-c4cccnc4[C@H](C)OC)n5CC)CC(C)(C)COC(=O)[C@@H]4CCCN(N4)C3=O)C(C)C)CC2)C1` (atropisomer, axis not shown) [EA36], in the series on NCI-H358 (K-Ras G12C), the negative logarithm of the IC50 (pIC50) was under 6.00.
The same measure, in the same setting: next, `C=CC(=O)N1COC2(CCN(C(=O)N(C)[C@H](C(=O)N[C@H]3CC4=NC=C(O4)c4ccc5c(c4)c(c(-c4cccnc4[C@H](C)OC)n5CC)CC(C)(C)COC(=O)[C@@H]4CCCN(N4)C3=O)C(C)C)CC2)C1` (atropisomer, axis not shown) [EA37]: under 6.00; `C=CC(=O)N1CCN(CC)C2(CCN(C(=O)N(C)[C@H](C(=O)N[C@H]3C[C@H]4CN(CCO4)c4ccc5c(c4)c(c(-c4cccnc4[C@H](C)OC)n5CC)CC(C)(C)COC(=O)[C@@H]4CCCN(N4)C3=O)C(C)C)CC2)C1` (atropisomer, axis not shown) [EA38]: under 6.00.
Same read-out and setting: with `C=CC(=O)N1CC2(CCN(C(=O)N(C)[C@H](C(=O)N[C@H]3C[C@H]4CN(CCO4)c4ccc5c(c4)c(c(-c4cccnc4[C@H](C)OC)n5CC)CC(C)(C)COC(=O)[C@@H]4CCCN(N4)C3=O)C(C)C)CC2)C1` (atropisomer, axis not shown) [EA121] the figure was under 6.00; with `C=CC(=O)N1CCOC2(CCN(C(=O)N(C)[C@H](C(=O)N[C@H]3Cc4cncc(c4)-c4ccc5c(c4)c(c(-c4cccnc4[C@H](C)OC)n5CC)CC(C)(C)COC(=O)[C@@H]4CCCN(N4)C3=O)C(C)C)CC2)C1` (atropisomer, axis not shown) [EA124], under 6.00.
With `CCn1c(-c2cccnc2[C@H](C)OC)c2c3cc(ccc31)N1CCO[C@@H](C[C@H](NC(=O)[C@H](C(C)C)N(C)C(=O)N3CCC4(CC3)CN(C(=O)/C=C/CF)C4)C(=O)N3CCC[C@H](N3)C(=O)OCC(C)(C)C2)C1` (atropisomer, axis not shown) [EA128], the pIC50 in the series on NCI-H358 (K-Ras G12C) is under 6.00.
For the molecule `C=CC(=O)N1CCOC2(CCN(C(=O)N(C)[C@H](C(=O)N[C@H]3C[C@@]4(C)CN(CCO4)c4ccc5c(c4)c(c(-c4cccnc4[C@H](C)OC)n5CC)CC(C)(C)COC(=O)[C@@H]4CCCN(N4)C3=O)C(C)C)CC2)C1` (atropisomer, axis not shown) [EA130], in the series with NCI-H358 (K-Ras G12C), the negative-log IC50 (pIC50) is under 6.05.
Still for that read-out and setting: with `C=CC(=O)N1CCOC2(C1)CN(C(=O)N(C)[C@H](C(=O)N[C@H]1C[C@H]3CN(CCO3)c3ccc4c(c3)c(c(-c3cccnc3[C@H](C)OC)n4CC)CC(C)(C)COC(=O)[C@@H]3CCCN(N3)C1=O)C(C)C)C2` (atropisomer, axis not shown) [EA136] the figure was under 6.00.
As for `C=CC(=O)N1CCN(C)C2(CCN(C(=O)N(C)[C@H](C(=O)N[C@H]3C[C@H]4CN(CCO4)c4ccc5c(c4)c(c(-c4cccnc4[C@H](C)OC)n5CC)CC(C)(C)COC(=O)[C@@H]4CCCN(N4)C3=O)C(C)C)CC2)C1` (atropisomer, axis not shown) [EA189], in the series on NCI-H358 (K-Ras G12C), the pIC50 was under 6.00.
Same read-out and setting: next, `C=CC(=O)N1CCOC2(CCN(C(=O)N(C)[C@H](C(=O)N[C@H]3Cc4nccc(n4)-c4ccc5c(c4)c(c(-c4cccnc4[C@H](C)OC)n5CC)CC(C)(C)COC(=O)[C@@H]4CCCN(N4)C3=O)C(C)C)CC2)C1` (atropisomer, axis not shown) [EA191]: under 6.00.
Same read-out and setting: next, `CCn1c(-c2cccnc2[C@H](C)OC)c2c3cc(ccc31)C1=CCCN(C1)C[C@H](NC(=O)[C@H](C(C)C)N(C)C(=O)N1CCC3(CCN(C(=O)/C=C/CN(C)C)C3)CC1)C(=O)N1CCC[C@H](N1)C(=O)OCC(C)(C)C2` (atropisomer, axis not shown) [EA192]: under 6.00.
“prop-2-en-1-yl N-[(7S,13S,19M)-21-ethyl-20-[2-[(1 S)-1-methoxyethyl]pyridin-3-yl]-17,17-dimethyl-8,14-dioxo-4,15-dioxa-3,9,21,27,28-pentaazapentacyclo[17.5.2.1^[2,5]0.1^[9,13]0.0^[22,26]]octacosa-1(25),2,5(28),19,22(26),23-hexaen-7-yl]carbamate” displayed a ring closure, isolated yield in series [1] (amide bond, HATU/DIEA, 139.0 mM) of 33%.
As to “tert-butyl ((6^3S,4S)-1^2-(2-((S)-1-methoxyethyl)pyridin-3-yl)-10,10-dimethyl-5,7-dioxo-1^1-(2,2,2-trifluoroethyl)-6^1,6^2,6^3,6^4,6^5,6^6-hexahydro-1^1H-8-oxa-1(5,3)-indola-6(1,3)-pyridazina-2(3,1)-azetidinacycloundecaphane-4-yl)carbamate”, the ring closure, isolated yield in series [1] (ester bond, EDCI/HOBt/DIEA, 6.4 mM, 30.0 °C) was 37%.
“tert-butyl ((6^3S,4S,Z)-11-ethyl-1^2-(2-((S)-1-methoxyethyl)pyridin-3-yl)-10,10-dimethyl-5,7-dioxo-6^1,6^2,6^3,6^4,6^5,6^6-hexahydro-1^1H-8-oxa-2(5,3)-oxadiazola-1(5,3)-indola-6(1,3)-pyridazinacycloundecaphane-4-yl)carbamate” returned a ring closure, isolated yield in series [1] (ester bond, EDCI/HOBt/DIEA, 6.8 mM) of 18%.
Take “tert-butyl ((6^3S, 4S)-1^2-(2-((S)-1-methoxyethyl) pyridin-3-yl)-10,10-dimethyl-5,7-dioxo-1^1-(2,2,2-trifluoroethyl)-6^1,6^2,6^3,6^4,6^5,6^6-hexahydro-1^1H-8-oxa-1(5,3)-indola-6(1,3)-pyridazina-2(3,1)-piperidinacycloundecaphane-4-yl)carbamate”: the ring closure, isolated yield in series [1] (ester bond, EDCI/HOBt/DIEA, 6.1 mM) is 8% and 9%.

The values are drawn from US20240277796A1, “METHODS FOR INHIBITING RAS” (Revolution Medicines, Inc., priority 2021, published 2024).
